Data published in paper PMC5300040 (Environmental Science & Technology, 2016).
Where two headings read alike, the source gives them in different places.

Columns and labels:
[1] = tested on: liver microsomes prepared from male Sprague–Dawley rats; type: in vitro ADME, rat; conditions: for relative level of dihydroxylated metabolite: all rat liver microsomal preparations except PB-pretreated rats, GC-μECD; for metabolite detection by GC–MS: 50 μM parent PCB, 2 h, 37 °C
[2] = tested on: liver microsomes from golden Syrian hamsters (male); type: in vitro ADME; conditions: male hamster liver microsomes; 50 μM parent PCB, 2 h, 37 °C
[3] = tested on: liver microsomes from untreated beagle dogs (female); type: in vitro ADME; conditions: female dog liver microsomes; 50 μM parent PCB, 2 h, 37 °C
[4] = Racemization of OH-PCB metabolites; type: physicochemical; conditions: CD column, GC-μECD; 300 °C for 2 h; methylated derivatives
[5] = tested on: liver microsomes from Cynomolgus monkeys (male); type: in vitro ADME; conditions: monkey liver microsomes, compared with other liver microsomes
[6] = tested on: liver microsomes from rats, dogs, guinea pigs, hamsters, monkeys and rabbits; type: in vitro ADME; conditions: for formation of monohydroxylated metabolite, GC–MS: all microsomal preparations investigated; for status of metabolite in incubations with liver microsomes of different species: dogs, guinea pigs, hamsters, monkeys, rabbits, all incubations
[7] = tested on: dog CYP2B11; conditions: cited from earlier work
[8] = tested on: recombinant rat CYP2B1; conditions: cited from earlier work
[9] = microsomes from isoniazid (INH) pretreated rats
[10] = microsomes from phenobarbital (PB) pretreated rats

Structure (SMILES) | relative level of dihydroxylated metabolite [1] | metabolite detection by GC–MS [1, 9] | metabolite detection by GC–MS [1, 10] | EF after racemization [4] | formation of monohydroxylated metabolite, GC–MS [6] | status of metabolite in incubations with liver microsomes of different species [6] | further results
Oc1cc(Cl)c(-c2ccc(Cl)cc2Cl)c(Cl)c1O [diOH-PCB 51, 3′,4′-dihydroxy-2,2′,4,6′-tetrachlorobiphenyl] | minor metabolites | low levels | minor | – | – | – | –
Oc1cc(Cl)c(-c2cc(Cl)c(Cl)cc2Cl)c(Cl)c1O [diOH-PCB 102, 3′,4′-dihydroxy-2,2′,4,5,6′-pentachlorobiphenyl] | minor metabolites | formed | formation | – | – | – | metabolite detection by GC–MS ([1]; microsomes from corn oil (CO) treated rats): formed; metabolite detection by GC–MS [2]: formed; metabolite detection by GC–MS [3]: formed
Oc1ccc(Cl)c(-c2ccc(Cl)cc2Cl)c1Cl [OH-PCB 51, 2,2′,4,6′-tetrachlorobiphenyl-3′-ol] | – | – | major metabolite | 0.46 ± 0.01 | formed | major metabolite | extent of enantiomeric enrichment, comparison of congeners ([1]; incubations with rat liver microsomes): more pronounced enantiomeric enrichment compared to OH-PCB 102; extent of enantiomeric enrichment (EF) [5]: near racemic; rank order of EF values across species ([6]; EF = area E1/(area E1 + area E2), Chirasil-Dex column): monkey > rabbit ∼ guinea pig > hamster > rat > dog
Oc1ccc(Cl)c(-c2cc(Cl)c(Cl)cc2Cl)c1Cl [OH-PCB 102, 2,2′,4,5,6′-pentachlorobiphenyl-3′-ol] | – | – | major metabolite | 0.49 ± 0.01 | detected | major metabolite | –
Oc1cc(Cl)c(Cl)c(-c2c(Cl)ccc(Cl)c2Cl)c1Cl [5-OH-PCB 136, 2,2′,3,3′,6,6′-hexachlorobiphenyl-5-ol] | – | – | – | – | – | – | metabolite formed [7]: 4,5-dihydroxylated PCB 136 metabolite; metabolite formed [8]: 4,5-dihydroxylated PCB 136 metabolite
